# Literature values in patent publication US6762172B1, “Water-stabilized organosilane compounds and methods for using the same” (Nova Biogenetics, Inc., priority 1997, dated 2004).
# Conditions: mixture with water, non-stabilized
structure (smiles),measurement,value
CCCCCCCCCCCCCCCCCC[N+](C)(C)CCC[Si](OC)(OC)OC.[Cl-] [3-(trimethoxysilyl)propyl-dimethyloctadecyl ammonium chloride],begins to lose effectiveness,four to eight
